Paper PMC11149917, “Translational and Therapeutic Evaluation of RAS-GTP Inhibition by RMC-6236 in RAS-Driven Cancers” (Cancer Discovery, 2024)

Tested on: PRISM panel of 845 cancer cell lines
Assay: PRISM assay
Format: cell-based, human
Method: The PRISM cell set comprised 845 cell lines representing more than 45 lineages (see Supplementary Table S1 for cell line information), which largely overlapped with the Cancer Cell Line Encyclopedia; https://portals.broadinstitute.org/ccle). Cell lines were grown in RPMI without phenol red and supplemented with 10% or 20% FBS for adherent and suspended lines, respectively. Parental cell lines were stably infected with a unique 24-nucleotide DNA barcode via lentiviral transduction and blasticidin selection. After selection, barcoded cell lines were expanded and subjected to quality control (Mycoplasma contamination test, an SNP test for confirming cell line identity, and barcode ID confirmation). Approved cell lines were then pooled (20–25 cell lines per pool) based on doubling time similarity and frozen in assay-ready vials.
RMC-6236 was added to 384-well plates at 8-point concentration with 3-fold dilutions in triplicate. These assay-ready plates were then seeded with the thawed cell line pools. Adherent cell pools were plated at 1,250 cells per well, whereas suspension and mixed adherent/suspension pools were plated at 2,000 cells per well. Treated cells were incubated for 5 days, and then lysed. Lysate plates were collapsed together prior to barcode amplification and detection.
Each cell line's unique barcode is located in the 3′UTR of the blasticidin-resistance gene and therefore is expressed as mRNA. Total mRNA was captured using magnetic particles that recognize polyA sequences. Captured mRNA was reverse-transcribed into cDNA and then the sequence containing the unique PRISM barcode was amplified using PCR. Finally, Luminex beads that recognize the specific barcode sequences in the cell set were hybridized to the PCR products and detected using a Luminex scanner which reports the signal as a median fluorescent intensity (MFI).
• Each detection well contained 10 control barcodes in increasing abundances as spike-in controls. For each plate, we first create a reference profile by calculating the median of the log2(MFI) values across negative control wells for each of these spiked-in barcodes. • For each well, a monotonic smooth p-spline was fitted to map the spike-in control levels to the reference profile. Next, we transform the log2(MFI) for each cell barcode using the fitted spline to allow well-to-well comparisons by correcting for amplification and detection artifacts. • Next, the separability between negative and positive control treatments was assessed. In particular, we calculated the error rate of the optimum simple threshold classifier between the control samples for each cell line and plate combination. The error rate is a measure of the overlap of the two control sets and was defined as error = (FP + FN)/n, where FP is false positives, FN is false negatives, and n is the total number of controls. A threshold was set between the distributions of positive and negative control log2(MFI) values (with everything below the threshold said to be positive and above said to be negative) such that this value is minimized. Additionally, we also calculated the dynamic range of each cell line. […] Additionally, any cell line that had less than 2 passing replicates was also omitted for the sake of reproducibility. Finally, we computed viability by normalizing with respect to the median negative control for each plate.
For every gene with nonsilent mutations in at least four cell lines, we compared the AUC values between cells with and without those mutations using a t test. This analysis was carried out for (i) the full data set; (ii) excluding cell lines with nonsilent KRAS mutations; and (iii) excluding cell lines that have either KRAS or NRAS nonsilent mutations.

For `CCn1c(-c2cc(N3CCN(C)CC3)cnc2[C@H](C)OC)c2c3cc(ccc31)-c1csc(n1)C[C@H](NC(=O)[C@H]1C[C@@H]1C)C(=O)N1CCC[C@H](N1)C(=O)OCC(C)(C)C2` [RMC-6236], the “RMC-6236: RevMed PRISM: AUC” value (LS_AUTONOMIC_GANGLIA) was 1, the “RMC-6236: RevMed PRISM: AUC” value (MCAS_OVARY, KRAS p.G12D) was 0.5822 and the “RMC-6236: RevMed PRISM: AUC” value (MDAMB361_BREAST) was 0.8463. The “RMC-6236: RevMed PRISM: AUC” value (MG63_BONE) was 0.9083, the “RMC-6236: RevMed PRISM: AUC” value (MIAPACA2_PANCREAS, KRAS p.G12C) was 0.3158 and the “RMC-6236: RevMed PRISM: AUC” value (MKN1_STOMACH) was 0.8375. For the same compound, the “RMC-6236: RevMed PRISM: AUC” value (MMNK1_BILIARY_TRACT) was 1, the “RMC-6236: RevMed PRISM: AUC” value (MOLP2_HAEMATOPOIETIC_AND_LYMPHOID_TISSUE) was 0.8941 and the “RMC-6236: RevMed PRISM: AUC” value (NCIH1373_LUNG, KRAS p.G12C) was 0.5175. The “RMC-6236: RevMed PRISM: AUC” value (NCIH1623_LUNG) was 0.9336, the “RMC-6236: RevMed PRISM: AUC” value (NCIH1792_LUNG, KRAS p.G12C) was 0.4194 and the “RMC-6236: RevMed PRISM: AUC” value (NCIH1944_LUNG, KRAS p.G13D) was 0.6749. For the same compound, the “RMC-6236: RevMed PRISM: AUC” value (NCIH2110_LUNG) was 0.7265, the “RMC-6236: RevMed PRISM: AUC” value (NCIH2170_LUNG) was 0.8266 and the “RMC-6236: RevMed PRISM: AUC” value (NOZ_LIVER, KRAS p.G12V) was 0.4128. For the same compound, the “RMC-6236: RevMed PRISM: AUC” value (NP3_CENTRAL_NERVOUS_SYSTEM) was 0.8074, the “RMC-6236: RevMed PRISM: AUC” value (NUGC4_STOMACH) was 0.5513 and the “RMC-6236: RevMed PRISM: AUC” value (OE21_OESOPHAGUS) was 0.7641. The “RMC-6236: RevMed PRISM: AUC” value (OSRC2_KIDNEY) was 0.9503, the “RMC-6236: RevMed PRISM: AUC” value (OVKATE_OVARY) was 0.9428 and the “RMC-6236: RevMed PRISM: AUC” value (PL21_HAEMATOPOIETIC_AND_LYMPHOID_TISSUE, KRAS p.A146V) was 0.4905. The “RMC-6236: RevMed PRISM: AUC” value (PSN1_PANCREAS, KRAS p.G12R) was 0.3382, the “RMC-6236: RevMed PRISM: AUC” value (RDES_BONE) was 0.8941 and the “RMC-6236: RevMed PRISM: AUC” value (RERFLCKJ_LUNG) was 0.8815. For the same compound, the “RMC-6236: RevMed PRISM: AUC” value (RKN_SOFT_TISSUE, KRAS p.G12V) was 0.3219, the “RMC-6236: RevMed PRISM: AUC” value (RL_HAEMATOPOIETIC_AND_LYMPHOID_TISSUE) was 0.8075 and the “RMC-6236: RevMed PRISM: AUC” value (SKES1_BONE) was 0.8643. For the same compound, the “RMC-6236: RevMed PRISM: AUC” value (SKGT2_STOMACH) was 0.6916, the “RMC-6236: RevMed PRISM: AUC” value (SKHEP1_LIVER) was 0.8776 and the “RMC-6236: RevMed PRISM: AUC” value (SNU601_STOMACH, KRAS p.G12D) was 0.4515. The “RMC-6236: RevMed PRISM: AUC” value (SNU1076_UPPER_AERODIGESTIVE_TRACT) was 0.4839, the “RMC-6236: RevMed PRISM: AUC” value (SNU1079_BILIARY_TRACT) was 0.8678 and the “RMC-6236: RevMed PRISM: AUC” value (SR786_HAEMATOPOIETIC_AND_LYMPHOID_TISSUE) was 0.7042. For the same compound, the “RMC-6236: RevMed PRISM: AUC” value (SUDHL4_HAEMATOPOIETIC_AND_LYMPHOID_TISSUE) was 0.8448, the “RMC-6236: RevMed PRISM: AUC” value (SUDHL8_HAEMATOPOIETIC_AND_LYMPHOID_TISSUE) was 1 and the “RMC-6236: RevMed PRISM: AUC” value (SUIT2_PANCREAS, KRAS p.G12D) was 0.6849. For the same compound, the “RMC-6236: RevMed PRISM: AUC” value (SW626_LARGE_INTESTINE, KRAS p.G12V) was 0.3255, the “RMC-6236: RevMed PRISM: AUC” value (SW1271_LUNG, NRAS p.Q61R) was 0.6986 and the “RMC-6236: RevMed PRISM: AUC” value (TC106_BONE) was 0.7285. The “RMC-6236: RevMed PRISM: AUC” value (TE8_OESOPHAGUS) was 0.7048, the “RMC-6236: RevMed PRISM: AUC” value (TT_THYROID) was 1 and the “RMC-6236: RevMed PRISM: AUC” value (U2973_HAEMATOPOIETIC_AND_LYMPHOID_TISSUE) was 1. For the same compound, the “RMC-6236: RevMed PRISM: AUC” value (UMUC6_URINARY_TRACT) was 0.4621, the “RMC-6236: RevMed PRISM: AUC” value (UMUC10_URINARY_TRACT) was 0.7756 and the “RMC-6236: RevMed PRISM: AUC” value (UMUC11_URINARY_TRACT) was 0.952. For the same compound, the “RMC-6236: RevMed PRISM: AUC” value (VAL_HAEMATOPOIETIC_AND_LYMPHOID_TISSUE) was 0.8667, the “RMC-6236: RevMed PRISM: AUC” value (YD10B_UPPER_AERODIGESTIVE_TRACT) was 0.5303 and the “RMC-6236: RevMed PRISM: AUC” value (YD38_UPPER_AERODIGESTIVE_TRACT) was 0.4476. For the same compound, the “RMC-6236: RevMed PRISM: AUC” value ([…]02ER_ENDOMETRIUM) was 0.8144, the “Median AUC (PRISM)” value (mutant copy number gained KRAS) was 0.54 and the “Median AUC (PRISM)” value (wild-type KRAS cell lines) was 0.78. The “Median AUC (PRISM)” value (wild-type copy number gained KRAS) was 0.84.
